The target in the test is T1, Human recombinant CXCR2 receptor (Homo sapiens, UniProt P25025).
T1 construct: Biosignal Packard Inc. (Kb, GTPγS assay); host or cells: CHO-K1
T1 sequence (P25025 1-360): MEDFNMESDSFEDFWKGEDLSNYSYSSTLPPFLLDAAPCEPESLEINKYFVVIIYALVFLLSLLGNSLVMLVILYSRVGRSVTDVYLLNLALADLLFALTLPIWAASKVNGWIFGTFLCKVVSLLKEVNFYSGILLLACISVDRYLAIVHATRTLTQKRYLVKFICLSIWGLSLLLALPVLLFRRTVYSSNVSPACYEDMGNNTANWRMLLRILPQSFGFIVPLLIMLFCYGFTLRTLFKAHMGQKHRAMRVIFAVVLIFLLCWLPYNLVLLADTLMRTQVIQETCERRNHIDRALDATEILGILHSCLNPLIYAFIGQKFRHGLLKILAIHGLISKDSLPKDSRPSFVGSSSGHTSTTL
In words: Receptor Binding Assay ([125I] IL-8, Ki) or [35S]-GTPγS Binding Assay (Kb) for human CXCR2 receptor. As to conditions: CHO-K1 membranes expressing human CXCR2; Ki from Receptor Binding Assay, Kb from [35S]-GTPγS Binding Assay; table does not say which applies per value; compounds are trifluoroacetic acid salts. As to the method:
[^125I] IL-8 (human recombinant) was obtained from Amersham Pharmacia Biotech., with specific activity 2000 Ci/mmol. All other chemicals were of analytical grade. Human recombinant CXCR2 receptor expressed in Chinese hamster ovary cells (CHO-K1) was purchased from Euroscreen. The Chinese hamster ovary membranes were prepared according to protocol supplied by Euroscreen. Membrane protein concentration was determined using a Bio-Rad protein assay. Assays were performed in a 96-well micro plate format according the method described in White, et al., J Biol Chem., 1998, 273, 10095). Each reaction mixture contained 0.05 mg/ml CXCR2 membrane protein in 20 mM Bis-Tris-propane, pH 8.0, containing 1.2 mM MgSO4, 0.1 mM EDTA, 25 mM NaCl and 0.03% CHAPS. In addition, compound of interest was added which had been pre-dissolved in dimethylsulphoxide (DMSO) so as to reach a final concentration of between 10 μM and 0.0005 μM (final concentration of DMSO 2% (v/v)). Binding was initiated by addition of 0.02 nM ^125I-IL-8. After 2 hours at room temperature the plate was harvested using a Brandell™ 96-well harvester onto glass fibre filter plate (GF/c) blocked with 1% polyethyleneimine+0.5% BSA and washed 3 times with 25 mM NaCl, 10 mM TrisHCl, 1 mM MgSO4, 0.5 mM EDTA, 0.03% CHAPS, pH 7.4. The filter was dried at 50° C. overnight. Backseal was then applied to the plate and 50 μl of liquid scintillation fluid added. The counts were then measured on the Packard Topcount™ scintillation counter.
[^35S]-GTPγS Binding Assay for Human CXCR2 Receptor Using SPA Technology
[^35S]-GTPγS (with specific activity 1082 Ci/mmol) and wheat germ agglutinin poly vinyl toluene scintillation proximity beads were purchased from Amersham Pharmacia Biotech. The Chinese hamster ovary cell (CHO-K1) membranes expressing human CXCR2 receptors were purchased from Biosignal Packard Inc. All other chemicals were of analytical grade. White non-binding surface 96 well Optiplate™ microplates were obtained from Packard. Recombinant human IL-8 was synthesised, cloned and expressed in Escherichia coli as described previously (Lindley I, et al., Proc. Natl. Acad. Sci., 1988, 85(23):9199).
The assay was performed in duplicate in 96 well Optiplate™ microplate in a final volume of 250 μl per well. Compounds were diluted in DMSO (0.5% final concentration) and incubated in 20 mM HEPES buffer pH 7.4 containing 10 mM MgCl2, 100 mM NaCl, 1 mM EDTA plus 100 nM IL-8, 50 VM GDP and 500 pM [^35S]GTPγS per well. SPA beads (1 mg/well final concentration) were pre-mixed with the membranes ([…] final concentration) in assay buffer: 20 mM HEPES buffer pH 7.4 containing 10 mM MgCl2, 100 mM NaCl, 1 mM EDTA. The bead membrane mixture was then added to each well, plates were sealed and incubated at room temperature for 60 minutes. After which time the plate was centrifuged and immediately read on Packard TopCount™ scintillation counter, program [^35S dpm] for 1 min/well. Data was expressed as the % response to 100 nM IL-8 minus basal.
Ki data and Kb data are determined in the aforementioned Receptor Binding and [^35S]-GTPγS Binding Assays respectively.
(In general: GTPγS resists hydrolysis and so accumulates on activated G proteins.)
As a reminder, the Ki is a dissociation constant, usually derived from enzyme kinetics or from competition with a known ligand. As to `Cn1ccc(-c2cc(C(=O)O)c3[nH]c(Nc4cccc(Cl)c4Cl)nc3c2)n1` [Example 12], the Ki was determined as 1800 nM.

For the compound `O=C(O)c1cccc2nc(Nc3ccccc3-c3ccccc3)[nH]c12` [Example 5], the Ki was 1200 nM.

Consider `Cc1c(F)cccc1Nc1nc2cccc(C(=O)O)c2[nH]1` [Example 3], for which the inhibitory constant (Ki) came to 800 nM.

As for `O=C(O)c1cc(-c2ccoc2)cc2nc(Nc3cccc(Cl)c3Cl)[nH]c12` [Example 10], the Ki was found to be 1500 nM.

Regarding `O=C(O)c1cc(F)cc2nc(Nc3cccc(Cl)c3Cl)[nH]c12` [Example 1, 2-(2,3-Dichloro-phenylamino)-6-fluoro-3H-benzoimidazole-4-carboxylic acid], the inhibition constant (Ki) was 200 nM.

The values above are taken from US20080306064A1, “Benzimidazole Derivatives” (priority 2005, published 2008).
